Results from ChEMBL document CHEMBL4819004, “Discovery of selective CDK9 degraders with enhancing antiproliferative activity through PROTAC conversion” (Eur J Med Chem, 2021).

How the values were obtained:
MOLM-13 = experiment: Antiproliferative activity against human MOLM-13 cells incubated for 72 hrs by MTT assay; format: functional, cell-based; details: MOLM-13, 72 h
MV4-11 [1] = experiment: Antiproliferative activity against human MV4-11 cells incubated for 72 hrs by MTT assay; format: functional, cell-based; details: MV4-11, 72 h
[2] = molecular target: T1, Protein cereblon/Cyclin-dependent kinase 9 (Homo sapiens, UniProt P50750+Q96SW2); experiment: Protac activity at CRBN/CDK9 in human MV4-11 cells assessed as CDK9 degradation rate at 500 nM incubated for 6 hrs by Western blot assay relative to control; format: cell-based
Target sequence in this assay (P50750 whole entry, looked up): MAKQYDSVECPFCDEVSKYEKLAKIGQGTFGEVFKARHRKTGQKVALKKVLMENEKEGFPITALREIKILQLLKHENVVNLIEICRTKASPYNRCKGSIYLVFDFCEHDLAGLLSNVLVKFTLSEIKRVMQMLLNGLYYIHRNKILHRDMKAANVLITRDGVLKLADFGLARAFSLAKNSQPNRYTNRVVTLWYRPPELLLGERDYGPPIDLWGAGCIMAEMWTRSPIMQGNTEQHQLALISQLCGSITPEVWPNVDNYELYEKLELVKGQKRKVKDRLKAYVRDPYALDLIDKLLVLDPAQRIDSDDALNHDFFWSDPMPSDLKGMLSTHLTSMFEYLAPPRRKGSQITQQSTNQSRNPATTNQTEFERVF
Target sequence in this assay (Q96SW2 whole entry, looked up): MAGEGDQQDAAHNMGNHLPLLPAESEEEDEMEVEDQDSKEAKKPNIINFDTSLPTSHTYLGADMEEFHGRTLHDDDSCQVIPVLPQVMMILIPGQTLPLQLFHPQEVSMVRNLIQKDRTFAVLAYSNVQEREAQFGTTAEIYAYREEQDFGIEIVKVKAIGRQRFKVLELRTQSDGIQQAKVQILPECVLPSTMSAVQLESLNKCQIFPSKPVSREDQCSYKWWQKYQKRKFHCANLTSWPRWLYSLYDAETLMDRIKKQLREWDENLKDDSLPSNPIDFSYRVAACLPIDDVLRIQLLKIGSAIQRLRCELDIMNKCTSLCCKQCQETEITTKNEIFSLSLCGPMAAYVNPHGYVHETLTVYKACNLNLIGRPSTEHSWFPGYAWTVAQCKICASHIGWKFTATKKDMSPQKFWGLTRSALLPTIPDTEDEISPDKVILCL

A549 = experiment: Antiproliferative activity against human A549 cells incubated for 72 hrs by MTT assay; format: functional, cell-based; details: A549, 72 h
B16 = experiment: Antiproliferative activity against mouse B16 cells incubated for 72 hrs by MTT assay; format: functional, cell-based; details: B16, 72 h
CDK9/cyclin T1 = CDK9/cyclin T1 (Homo sapiens, UniProt P50750); experiment: Inhibition of CDK9/cyclin T (unknown origin) using YSPTSPSYSPTSPSYSPTSPKKK or histone H1 as substrate incubated for 2 hrs in presence of [gamma-33P]ATP by radioactive filter binding assay; format: protein-complex assay
MCF7 = experiment: Antiproliferative activity against human MCF7 cells incubated for 72 hrs by MTT assay; format: functional, cell-based; details: MCF7, 72 h
HepG2 = experiment: Antiproliferative activity against human HepG2 cells incubated for 72 hrs by MTT assay; format: functional, cell-based; details: HepG2, 72 h
HCT-116 = experiment: Antiproliferative activity against human HCT-116 cells incubated for 72 hrs by MTT assay; format: functional, cell-based; details: HCT-116, 72 h
[3] = molecular target: T1, Protein cereblon/Cyclin-dependent kinase 9; experiment: Protac activity at CRBN/CDK9 in human MOLM-13 cells assessed as CDK9 degradation rate at 500 nM incubated for 6 hrs by Western blot assay relative to control; format: cell-based
Target sequence in this assay (P50750 whole entry, looked up): as the sequence (P50750 whole entry, looked up) above
Target sequence in this assay (Q96SW2 whole entry, looked up): as the sequence (Q96SW2 whole entry, looked up) above

[4] = molecular target: T1, Protein cereblon/Cyclin-dependent kinase 9; experiment: Protac activity at CRBN/CDK9 in human MV4-11 cells assessed as induction of CDK9 degradation incubated for 6 hrs by Western blot assay; format: cell-based
Target sequence in this assay (P50750 whole entry): as the sequence (P50750 whole entry, looked up) above
Target sequence in this assay (Q96SW2 whole entry): as the sequence (Q96SW2 whole entry, looked up) above

MV4-11 [5] = experiment: Induction of apoptosis in human MV4-11 cells assessed as early apoptotic cells at 500 nM after 6 hrs by AnnexinV-FITC/propidium iodide staining based flow cytometry (reference value: 5.36 %); format: functional
MV4-11 [6] = experiment: Induction of apoptosis in human MV4-11 cells assessed as late apoptotic cells at 500 nM after 6 hrs by AnnexinV-FITC/propidium iodide staining based flow cytometry (reference value: 4.29%); format: functional
MV4-11 [7] = experiment: Induction of apoptosis in human MV4-11 cells assessed as total apoptotic cells at 500 nM after 6 hrs by AnnexinV-FITC/propidium iodide staining based flow cytometry (reference value: 9.75 %); format: functional
MV4-11 [8] = experiment: Induction of apoptosis in human MV4-11 cells assessed as necrotic cells at 500 nM after 6 hrs by AnnexinV-FITC/propidium iodide staining based flow cytometry (reference value: 0.16 %); format: functional
MV4-11 [9] = experiment: Induction of apoptosis in human MV4-11 cells assessed as viable cells at 500 nM after 6 hrs by AnnexinV-FITC/propidium iodide staining based flow cytometry (reference value: 90.1 %); format: functional; details: read-out: Activity

Chain of CDK9/cyclin T1 (O60563 whole entry): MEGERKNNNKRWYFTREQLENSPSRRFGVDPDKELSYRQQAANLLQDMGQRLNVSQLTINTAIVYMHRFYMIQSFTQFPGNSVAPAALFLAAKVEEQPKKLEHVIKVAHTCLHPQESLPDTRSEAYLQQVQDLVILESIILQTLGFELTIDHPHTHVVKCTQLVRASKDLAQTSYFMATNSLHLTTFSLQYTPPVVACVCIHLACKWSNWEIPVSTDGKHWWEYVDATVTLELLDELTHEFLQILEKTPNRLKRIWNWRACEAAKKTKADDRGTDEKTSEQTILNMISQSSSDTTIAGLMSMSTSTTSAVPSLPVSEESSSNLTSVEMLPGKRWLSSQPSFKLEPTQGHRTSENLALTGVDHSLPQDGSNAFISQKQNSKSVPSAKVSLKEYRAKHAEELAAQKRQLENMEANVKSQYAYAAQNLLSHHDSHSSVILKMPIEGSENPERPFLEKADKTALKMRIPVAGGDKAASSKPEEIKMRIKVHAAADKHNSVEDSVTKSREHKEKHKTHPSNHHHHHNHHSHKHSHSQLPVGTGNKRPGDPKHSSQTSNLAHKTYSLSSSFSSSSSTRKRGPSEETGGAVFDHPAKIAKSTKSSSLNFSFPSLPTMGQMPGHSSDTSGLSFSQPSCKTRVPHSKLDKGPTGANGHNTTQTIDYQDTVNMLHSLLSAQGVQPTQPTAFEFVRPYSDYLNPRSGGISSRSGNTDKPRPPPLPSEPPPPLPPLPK
Chain of CDK9/cyclin T1 (P50750 whole entry): as the sequence (P50750 whole entry, looked up) above

Structure (SMILES)	IC50 (MOLM-13) [µM]	IC50 (MV4-11 [1]) [µM]	Activity [2] [%]	IC50 (A549) [µM]	IC50 (B16) [µM]	IC50 (CDK9/cyclin T1) [µM]	IC50 (MCF7) [µM]	IC50 (HepG2) [µM]	IC50 (HCT-116) [µM]	Activity [3] [%]	DC50 [4] [µM]	Activity (MV4-11 [5]) [%]	Activity (MV4-11 [6]) [%]	Activity (MV4-11 [7]) [%]	Activity (MV4-11 [8]) [%]	viability at 0.5 µM (MV4-11 [9]) [%]
COc1cc(N2CCN(CCCCCC(=O)NCCNc3cccc4c3C(=O)N(C3CCC(=O)NC3=O)C4=O)CC2)ccc1-c1ncnc(Nc2cccc(CS(C)(=N)=O)c2)n1 (configuration not stated)	> 50	7.71	62	> 50	> 50	8.11	> 50	> 50	> 50	24	–	–	–	–	–	–
COc1cc(F)ccc1-c1ncnc(Nc2cccc(CS(C)(=O)=NC(=O)CCC(=O)CCC(=O)NCCNc3cccc4c3C(=O)N(C3CCC(=O)NC3=O)C4=O)c2)n1 (configuration not stated)	0.13	0.07	98	3.21	1.75	0.0102	5.18	3.36	3	98	–	–	–	–	–	–
COc1cc(F)ccc1-c1ncnc(Nc2cccc(CS(C)(=O)=NC(=O)CCC(=O)CCC(=O)NCCCCCNc3cccc4c3C(=O)N(C3CCC(=O)NC3=O)C4=O)c2)n1 (configuration not stated)	0.74	1.1	67	11.1	8.64	0.0857	15.5	8.58	4.77	45	–	–	–	–	–	–
COc1cc(F)ccc1-c1ncnc(Nc2cccc(CS(C)(=O)=NC(=O)CCCCCC(=O)NCCNc3cccc4c3C(=O)N(C3CCC(=O)NC3=O)C4=O)c2)n1 (configuration not stated)	1.11	0.18	88.8	1.44	6.68	0.0144	5.34	16.4	8.04	66	–	–	–	–	–	–
COc1cc(F)ccc1-c1ncnc(Nc2cccc(CS(C)(=O)=NC(=O)CCc3cn(CCCCCC(=O)NCCNc4cccc5c4C(=O)N(C4CCC(=O)NC4=O)C5=O)nn3)c2)n1 (configuration not stated)	0.99	0.72	88.8	8.35	16.2	0.0114	24.5	10.3	16.4	66	–	–	–	–	–	–
COc1cc(F)ccc1-c1ncnc(Nc2cccc(CS(C)(=O)=NC(=O)COCCOCCOCC(=O)NCCNc3cccc4c3C(=O)N(C3CCC(=O)NC3=O)C4=O)c2)n1 (configuration not stated)	0.65	0.27	51	13.2	18.4	0.0149	20.8	17.5	12.2	0	–	–	–	–	–	–
COc1cc(N2CCN(CCCCCCCCCC(=O)NCCNc3cccc4c3C(=O)N(C3CCC(=O)NC3=O)C4=O)CC2)ccc1-c1ncnc(Nc2cccc(CS(C)(=N)=O)c2)n1 (configuration not stated)	> 50	2.6	44	> 50	> 50	6.34	> 50	> 50	> 50	49	–	–	–	–	–	–
COc1cc(F)ccc1-c1ncnc(Nc2cccc(CS(C)(=O)=NC(=O)CCCC(=O)NCCNc3cccc4c3C(=O)N(C3CCC(=O)NC3=O)C4=O)c2)n1 (configuration not stated)	2.8	0.46	100	35.6	22.1	0.0127	24.8	19.1	20.6	99	0.0273	–	–	–	–	–
COc1cc(N2CCN(CCCCCCC(=O)NCCNc3cccc4c3C(=O)N(C3CCC(=O)NC3=O)C4=O)CC2)ccc1-c1ncnc(Nc2cccc(CS(C)(=N)=O)c2)n1 (configuration not stated)	> 50	3.8	52	> 50	> 50	6.56	> 50	> 50	> 50	7	–	–	–	–	–	–
COc1cc(F)ccc1-c1ncnc(Nc2cccc(CS(C)(=O)=NC(=O)CCCCCCCCCC(=O)NCCNc3cccc4c3C(=O)N(C3CCC(=O)NC3=O)C4=O)c2)n1 (configuration not stated)	0.38	0.039	100	2.28	1.72	0.0107	4.79	8.61	3.23	99	0.0312	–	–	–	–	–
COc1cc(N2CCN(CCCCCCCC(=O)NCCNc3cccc4c3C(=O)N(C3CCC(=O)NC3=O)C4=O)CC2)ccc1-c1ncnc(Nc2cccc(CS(C)(=N)=O)c2)n1 (configuration not stated)	> 50	4.9	33	> 50	> 50	6.87	> 50	> 50	> 50	23	–	–	–	–	–	–
COc1cc(F)ccc1-c1ncnc(Nc2cccc(C[S@](C)(=N)=O)c2)n1 [ATUVECICLIB]	0.2	0.56	0	3.29	1.47	–	5.52	2.7	2.94	0	–	4.99	15.7	21.1	0.26	78.6
COc1cc(F)ccc1-c1ncnc(Nc2cccc(CS(C)(=O)=NC(=O)CCc3cn(CCCCCCCC(=O)NCCNc4cccc5c4C(=O)N(C4CCC(=O)NC4=O)C5=O)nn3)c2)n1 (configuration not stated)	0.2	0.18	100	4.14	3.07	0.00925	11.4	4.65	5.51	100	0.0103	–	–	–	–	–
COc1cc(F)ccc1-c1ncnc(Nc2cccc(CS(C)(=O)=NC(=O)COCCOCCOCC(=O)NCCCCCNc3cccc4c3C(=O)N(C3CCC(=O)NC3=O)C4=O)c2)n1 (configuration not stated)	0.48	0.25	100	6.15	3.35	0.00935	10.2	8.51	3.1	99	–	–	–	–	–	–
COc1cc(F)ccc1-c1ncnc(Nc2cccc(CS(C)(=O)=NC(=O)CCCCCC(=O)NCCCCCNc3cccc4c3C(=O)N(C3CCC(=O)NC3=O)C4=O)c2)n1 (configuration not stated)	0.47	0.45	95	11.9	3.5	0.0139	8.02	4.15	1.42	65	–	–	–	–	–	–
